This is an account of results in ChEMBL document CHEMBL1124017, “Synthesis, absolute configuration, and molecular modeling study of etoxadrol, a potent phencyclidine-like agonist” (J Med Chem, 1988).

SMILES strings stand for the structures.

Experiment [1] addresses Glutamate NMDA receptor. The experiment can be described thus: Displacement of [3H]TCP from tissue homogenate preparation of whole rat brain minus cerebellum. Format: tissue-based.
The species named for experiment [2] is Rattus norvegicus. The experiment can be described thus: Behavioral potency by which rat discriminate phencyclidine from saline in a 2 lever drug discrimination procedure. The class given is functional.

A word on the Ki: it is a measure of affinity in units of concentration, obtained from inhibition or displacement. Low values mean higher affinity, high ones lower affinity. Regarding `CC[C@@]1(c2ccccc2)OC[C@H]([C@@H]2CCCCN2)O1`, the Ki in experiment [1] was determined as 3.7 µM. In other words, the single-digit micromolar range. With `CC[C@@]1(c2ccccc2)OC[C@H]([C@H]2CCCCN2)O1.CC[C@]1(c2ccccc2)OC[C@H]([C@H]2CCCCN2)O1`, the affinity in experiment [1] corresponds to a Ki of 38 µM. This compound returned an ED50 in experiment [2] of over 100 µM.

`CC[C@]1(c2ccccc2)OC[C@H]([C@@H]2CCCCN2)O1` [ETOXADROL]: the affinity in experiment [1] corresponds to a Ki of 0.107 µM. For the same compound, the ED50 in experiment [2] was found to be 2.4 µM.

In experiment [1], `CC[C@@]1(c2ccccc2)OC[C@@H]([C@@H]2CCCCN2)O1.CC[C@]1(c2ccccc2)OC[C@@H]([C@@H]2CCCCN2)O1` displayed a Ki of 40 µM. In addition, in experiment [2], the ED50 is over 100 µM. In the same order, the values of `CC[C@@]1(c2ccccc2)OC[C@@H]([C@H]2CCCCN2)O1` are 2.3 µM and over 100 µM.
